For test [1], the target named is T1, 5-HT1-like receptor (dog saphenous vein) (Canis lupus familiaris, UniProt P79250).
T1 construct: Helicoids of dog saphenous vein were set up; from tissue; host or cells: dog saphenous vein (helicoids)
The experiment in a line: 5-HT1-Like Receptor Screen, Dog Saphenous Vein (contraction of helicoids). Format: cell-based. As to the method: 5-HT1 -Like Receptor Screen
Helicoids of dog saphenous vein were set up at 37° C. in modified Krebs solution at a resting force of 10 mN. The solution also contained 1 μmol/l each of ketanserin, prazosin, atropine and mepyramine, 6 μmol/l cocaine and 200 μmol/l ascorbate. Nearly […] contractions were measured with force transducers on a polygraph. The tissues were exposed twice to 5-hydroxytryptamine (5-HT) 2 μmol/l followed by washes. A cumulative concentration-effect curve to the test compound was determined, followed by a curve to 5-HT in the presence of the highest used concentration of test compound. Contractions caused by the test compound were compared with those caused by 5-HT. The intrinsic activity of the test compound was calculated as the ratio of the maximum test compound-induced effect over the effect caused by 2 μmol/l 5-HT. The EC50 of the test compound was estimated from the corresponding effect curve. When appropriate equilibrium dissociation constants Kp were estimated by the method of Marano & Kaumann (1976, J. Pharmacol. Exp. Ther. 198, 518-525).

The target of test [2] is T2, rabbit basilar artery (5-HT1-like receptor) (Oryctolagus cuniculus, UniProt P49144).
T2 construct: from tissue; host or cells: rabbit basilar artery, endothelium removed (ring segments)
The experiment in a line: Rabbit Basilar Artery (isometric tension of isolated ring segments). Format: cell-based. As to the method: Experiments were performed in intracranial arteries from rabbit isolated basilar artery in a similar method to one described previously (Parsons and Whalley, 1989. Eur J Pharmacol 174, 189-196.).
In brief, rabbits were killed by overdose with anaesthetic (sodium pentobarbitone). The whole brain was quickly removed and immersed in ice cold modified Kreb's solution and the basilar artery removed with the aid of a dissecting microscope. The Krebs solution was of the following composition (mM) Na^+ (120); K^+ (5); Ca^2+ (2.25); Mg^2+ (0.5); Cl^- (98.5); SO4^2^- (1); EDTA (0.04), equilibrated with 95% O2 /5% CO2. The endothelium was removed by a gentle rubbing of the lumen with a fine metal wire. Arteries were then cut into ring segments (ca 4-5 mm wide) and set up for recording of isometric tension in 50 ml tissue baths in modified Krebs solution with the additional supplement of (mM); […] (20); fumarate (10); pyruvate (5); L-glutamate (5) and glucose (10). The arteries were then placed under a resting force of 3-4 mN maintained at 37° C. and the solution bubbled with 95% O2 /5% CO2.
After tests for initial reactivity with 90 mM KCl depolarising solution and for lack of acetylcholine-induced relaxation of 5-HT ([…]) precontraction, cumulative concentration-effect curves ([…]) to 5-HT were constructed in the presence of ascorbate […], cocaine […], indomethacin […], ketanserin […] and prazosin […].
Following a 45-60 min wash period, cumulative concentration-effect curves to the test compounds or 5-HT (as a time match control) were constructed in the presence of ascorbate, indomethacin, cocaine, ketanserin and prazosin.

Counter-ions that a name gives are not always drawn.

T2 sequence (P49144 whole entry): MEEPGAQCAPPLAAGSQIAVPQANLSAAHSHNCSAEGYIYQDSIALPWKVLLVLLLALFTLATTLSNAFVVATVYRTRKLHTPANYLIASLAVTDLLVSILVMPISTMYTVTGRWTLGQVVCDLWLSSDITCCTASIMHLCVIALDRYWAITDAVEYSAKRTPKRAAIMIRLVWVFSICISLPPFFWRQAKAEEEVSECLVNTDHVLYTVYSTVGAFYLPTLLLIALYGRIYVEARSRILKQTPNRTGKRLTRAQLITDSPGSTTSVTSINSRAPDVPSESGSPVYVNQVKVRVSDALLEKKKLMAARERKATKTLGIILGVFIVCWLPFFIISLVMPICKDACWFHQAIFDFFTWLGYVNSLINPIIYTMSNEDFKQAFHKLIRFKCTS
T1 sequence (P79250 whole entry): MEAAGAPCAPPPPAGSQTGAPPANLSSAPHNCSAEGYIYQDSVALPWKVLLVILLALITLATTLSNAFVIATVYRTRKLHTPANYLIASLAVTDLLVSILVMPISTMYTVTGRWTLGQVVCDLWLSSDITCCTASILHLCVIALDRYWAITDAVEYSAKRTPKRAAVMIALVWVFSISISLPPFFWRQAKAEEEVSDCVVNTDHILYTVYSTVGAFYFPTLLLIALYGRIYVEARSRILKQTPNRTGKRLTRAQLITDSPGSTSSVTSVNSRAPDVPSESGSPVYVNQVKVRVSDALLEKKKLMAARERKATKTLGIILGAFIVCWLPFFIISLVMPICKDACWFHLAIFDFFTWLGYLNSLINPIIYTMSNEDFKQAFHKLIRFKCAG

The EC50 is the concentration giving half of the maximal effect. For `CCCOc1ccc2[nH]cc(CCN(C)C)c2c1Cl` [3(i), 3-(2-Dimethylaminoethyl)-4-chloro-5-n-propyloxy-indole fumarate], the EC50 in test [1] lay in the range of 0.2 to 15 µM; in test [2], 170 to 1100 nM.

On to `COc1ccc2[nH]cc(CCN(C)C)c2c1Cl` [6(i), 3-(2-Dimethylaminoethyl)-4-chloro-5-methoxyindole fumarate], for which the values for the EC50 in test [1] and in test [2] were 0.2 to 15 µM and 170 to 1100 nM, respectively.

As for `NCCc1c[nH]c2ccc(OCc3ccccc3)c(Cl)c12` [Example 1, 3-(2-amino-ethyl)-4-chloro-5-benzyloxyindole hydrochloride], in test [1], the EC50 lay in the range of 0.2 to 15 µM.

As for `NCCc1c[nH]c2ccc(O)c(Cl)c12` [Example 2, 3-(2-Aminoethyl)-4-chloro-5-hydroxyindole fumarate], the EC50 in test [1] lay within 0.2 to 15 µM; in test [2], 170 to 1100 nM.

Consider `CCCOc1ccc2[nH]cc(CCN)c2c1Cl` [Example 3(ii), 3-(2-aminoethyl)-4-chloro-5-n-propyloxyindole fumarate], for which the EC50 in test [1] was 0.2 to 15 µM.

In test [2], `CN(C)CCc1c[nH]c2ccc(OCc3ccccc3)c(Cl)c12` [Example 4, 3-(2-Dimethylaminoethyl)-4-chloro-5-benzyloxyindole hydrochloride] yielded an EC50 of 170 to 1100 nM.

With `CN(C)CCc1c[nH]c2ccc(O)c(Cl)c12` [Example 5, 3-(2-Dimethylaminoethyl)-4-chloro-5-hydroxyindole oxalate], the EC50 lay within 0.2 to 15 µM in test [1] and 170 to 1100 nM in test [2].

Compound `COc1ccc2[nH]cc(CCN)c2c1Cl` [Example 6(ii), 3-(2-aminoethyl)-4-chloro-5-methoxyindole fumarate] displayed an EC50 in test [1] of 0.2 to 15 µM.

In test [1], `COc1ccc2[nH]cc(CCN(C)C)c2c1Br` [Example 7, 3-(2-Dimethylaminoethyl)-4-bromo-5-methoxyindole hemifumarate] came in with an EC50 of 0.2 to 15 µM.

`CCCNCCc1c[nH]c2ccc(OC)c(Cl)c12` [Example 8, 3-(2-n-Propylaminoethyl)-4-chloro-5-methoxyindole fumarate] yielded an EC50 in test [1] of 0.2 to 15 µM.

In test [1], `CNCCc1c[nH]c2ccc(OC)c(Cl)c12` [Example 9, 3-(2-Methylaminoethyl)-4-chloro-5-methoxyindole hemifumarate] registered an EC50 of 0.2 to 15 µM.

Regarding `CCCCOc1ccc2[nH]cc(CCN(C)C)c2c1Cl` [Example 11, 3-(2-Dimethylaminoethyl)-4-chloro-5-n-butyloxyindole hemifumarate], the half-maximal effective concentration (EC50) in test [1] is 0.2 to 15 µM; in test [2], 170 to 1100 nM.

As for `CCCOc1ccc2[nH]cc(CCNC)c2c1Cl` [Example 13, 3-(2-Methylaminoethyl)-4-chloro-5-n-propoxyindole hemifumarate], the EC50 in test [1] is 0.2 to 15 µM.

For `CCCOc1ccc2[nH]cc(CCN(C)C)c2c1Br` [Example 14, 3-(2-Dimethylaminoethyl)-4-bromo-5-n-propoxyindole hemifumarate], the figures for the EC50 in test [1] and in test [2] were 0.2 to 15 µM and 170 to 1100 nM, respectively.

In turn, `CC(C)Oc1ccc2[nH]cc(CCN)c2c1Cl` [Example 15, 3-(2-Aminoethyl)-4-chloro-5-iso-propoxyindole fumarate] returned an EC50 in test [1] of 0.2 to 15 µM.

In test [1], `CCCOc1ccc2[nH]cc(CCN)c2c1Br` [Example 16, 3-(2-Aminoethyl)-4-bromo-5-n-propoxyindole oxalate] came in with an EC50 of 0.2 to 15 µM.

Regarding `CC(C)Oc1ccc2[nH]cc(CCN(C)C)c2c1Cl` [Example 17, 3-(2-Dimethylaminoethyl)-4-chloro-5-isopropoxyindole oxalate], in test [1], the EC50 lay within 0.2 to 15 µM.

On to `CCCOc1ccc2[nH]cc(CCN)c2c1C` [Example 18b, 3-(2-aminoethyl)-4-methyl-5-n-propyloxyindole oxalate], for which the EC50 in test [2] was 170 to 1100 nM.

In turn, `CCCOc1ccc2[nH]cc(CCN(C)CC)c2c1Cl` [Example 19, 3-(2-(N-methyl-N-ethylamino)ethyl)-4-chloro-5-n-propyloxyindole oxalate] showed an EC50 in test [2] of 170 to 1100 nM.

In turn, `CCCOc1ccc2[nH]cc(CCN(C)C)c2c1I` [Example 20, 3-(2-(Dimethylamino)ethyl)-4-iodo-5-n-propyloxy indole oxalate] had an EC50 in test [2] of 170 to 1100 nM.

In test [2], `CN(C)CCc1c[nH]c2ccc(OCC(C)(C)C)c(Cl)c12` [Example 22, 3-(2-(Dimethylamino)ethyl)-4-chloro-5-neopentyloxy indole oxalate] gave an EC50 of 170 to 1100 nM.

The values above are taken from patent publication US5571833A, “Tryptamine analogues, their synthesis and their use as 5-HT1 -like or 5-HT2 receptor agonists” (SmithKline Beecham plc, priority 1991, dated 1996).
